From patent publication US9149038B2, “4-amino-6-(heterocyclic)picolinates and 6-amino-2-(heterocyclic)pyrimidine-4-carboxylates and their use as herbicides” (Dow AgroSciences LLC, priority 2013, dated 2015)
Where two headings read alike, the source gives them in different places.

What was measured:
[1] = tested on: Key Broadleaf Weed and Crop Species; assay: Post-Emergent Test II: postemergent herbicidal activity, visual rating after 14 d (Table 7); type: in vivo; conditions: post-emergence, 336 h; for pest or weed control at 35 g/ha: 35 g ai/ha; for pest or weed control at 70 g/ha: 70 g ai/ha; for pest or weed control at 140 g/ha: 140 g ai/ha
Text: (§1) Herbicidal evaluations were made visually on a scale of 0 to 100 where 0 represents no activity and 100 represents complete plant death.
(§2) Seeds or nutlets of the desired test plant species were planted in Sun Gro Metro-Mix® 360 planting mixture, which typically has a pH of 6.0 to 6.8 and an organic matter content of about 30 percent, in plastic pots with a surface area of 64 square centimeters (cm^2). When required to ensure good germination and healthy plants, a fungicide treatment and/or other chemical or physical treatment was applied. The plants were grown for 7-21 d in a greenhouse with an approximate 15 h photoperiod which was maintained at about 23-29° C. during the day and 22-28° C. during the night. Nutrients and water were added on a regular basis and supplemental lighting was provided with overhead metal halide 1000-Watt lamps as necessary. The plants were employed for testing when they reached the first or second true leaf stage.
(§3) A weighed amount, determined by the highest rate to be tested, of each test compound was placed in a 25 mL glass vial and was dissolved in 4 mL of a 97:3 v/v mixture of acetone and DMSO to obtain concentrated stock solutions. […] The concentrated stock solutions obtained were diluted with 20 mL of an aqueous mixture containing acetone, water, isopropyl alcohol, DMSO, Atplus 411F crop oil concentrate, and Triton® X-155 surfactant in a 48.5:39:10:1.5:1.0:0.02 v/v ratio to obtain spray solutions containing the highest application rates. Additional application rates were obtained by serial dilution of 12 mL of the high rate solution into a solution containing 2 mL of a 97:3 v/v mixture of acetone and DMSO and 10 mL of an aqueous mixture containing acetone, water, isopropyl alcohol, DMSO, Atplus 411F crop oil concentrate, and Triton X-155 surfactant in a 48.5:39:10:1.5:1.0:0.02 v/v ratio to obtain ½×, ¼×, ⅛× and 1/16× rates of the high rate. Compound requirements are based upon a 12 mL application volume at a rate of 187 liters per hectare (L/ha). Formulated compounds were applied to the plant material with an overhead Mandel track sprayer equipped with 8002E nozzles calibrated to deliver 187 L/ha over an application area of 0.503 square meters at a spray height of 18 inches (43 cm) above the average plant canopy height. Control plants were sprayed in the same manner with the solvent blank.
(§4) The treated plants and control plants were placed in a greenhouse as described above and watered by subirrigation to prevent wash-off of the test compounds. After 14 d, the condition of the test plants as compared with that of the untreated plants was determined visually and scored on a scale of 0 to 100 percent where 0 corresponds to no injury and 100 corresponds to complete kill and are presented as indicated in Table 4.

[2] = tested on: Key Grass and Sedge Weeds as well as Grass Crops; assay: Post-Emergent Test II: postemergent herbicidal activity, visual rating after 14 d (Table 8); type: in vivo; conditions: post-emergence, 336 h; for pest or weed control at 35 g/ha: 35 g ai/ha; for pest or weed control at 70 g/ha: 70 g ai/ha; for pest or weed control at 140 g/ha: 140 g ai/ha
Text: as §1, §2, §3, §4

[3] = lambsquarters (Chenopodium album), read-out: Visual Growth Reduction (%) 14 Days After Application CHEAL
[4] = oilseed rape, canola (Brassica napus), read-out: Visual Growth Reduction (%) 14 Days After Application BRSNN
[5] = redroot pigweed (Amaranthus retroflexus), read-out: Visual Growth Reduction (%) 14 Days After Application AMARE
[6] = sunflower (Helianthus annuus), read-out: Visual Growth Reduction (%) 14 Days After Application HELAN
[7] = velvetleaf (Abutilon theophrasti), read-out: Visual Growth Reduction (%) 14 Days After Application ABUTH
[8] = wild poinsettia (Euphorbia heterophylla), read-out: Visual Growth Reduction (%) 14 Days After Application EPHHL
[9] = giant foxtail (Setaria faberi), read-out: Visual Growth Reduction (%) 14 Days After Application SETFA
[10] = maize, corn (Zea mays), read-out: Visual Growth Reduction (%) 14 Days After Application ZEAMX
[11] = rice (Oryza sativa), read-out: Visual Growth Reduction (%) 14 Days After Application ORYSA
[12] = wheat, spring (Triticum aestivum), read-out: Visual Growth Reduction (%) 14 Days After Application TRZAS
[13] = yellow nutsedge (Cyperus esculentus), read-out: Visual Growth Reduction (%) 14 Days After Application CYPES
[14] = barnyardgrass (Echinochloa crus-galli), read-out: Visual Growth Reduction (%) 14 Days After Application ECHCG

SMILES | pest or weed control at 35 g/ha [1, 3] [%] | pest or weed control at 70 g/ha [1, 3] [%] | pest or weed control at 140 g/ha [1, 3] [%] | pest or weed control at 35 g/ha [1, 4] [%] | pest or weed control at 70 g/ha [1, 4] [%] | pest or weed control at 140 g/ha [1, 4] [%] | pest or weed control at 35 g/ha [1, 5] [%] | pest or weed control at 70 g/ha [1, 5] [%] | pest or weed control at 140 g/ha [1, 5] [%] | pest or weed control at 35 g/ha [1, 6] [%] | pest or weed control at 70 g/ha [1, 6] [%] | pest or weed control at 140 g/ha [1, 6] [%] | pest or weed control at 35 g/ha [1, 7] [%] | pest or weed control at 70 g/ha [1, 7] [%] | pest or weed control at 140 g/ha [1, 7] [%] | pest or weed control at 140 g/ha [1, 8] [%] | pest or weed control at 140 g/ha [2, 9] [%] | pest or weed control at 140 g/ha [2, 11] [%] | pest or weed control at 140 g/ha [2, 12] [%] | pest or weed control at 140 g/ha [2, 13] [%] | other results
COC(=O)c1nc(-c2ccc3c(c2Cl)OC(F)(F)O3)cc(N)c1Cl [Compound 33] | 75 to 84 | 75 to 84 | 75 to 84 | 60 to 74 | 60 to 74 | 60 to 74 | 60 to 74 | 75 to 84 | 95 to 100 | 75 to 84 | 85 to 94 | 85 to 94 | 60 to 74 | 75 to 84 | 75 to 84 | 60 to 74 | 45 to 59 | 0 to 29 | 0 to 29 | 95 to 100 | pest or weed control at 35 g/ha [1, 8]: 0 to 29%; pest or weed control at 70 g/ha [1, 8]: 60 to 74%; pest or weed control at 35 g/ha [2, 9]: 0 to 29%; pest or weed control at 70 g/ha [2, 9]: 0 to 29%; pest or weed control at 35 g/ha [2, 10]: 60 to 74%; pest or weed control at 70 g/ha [2, 10]: 60 to 74%; pest or weed control at 140 g/ha [2, 10]: 75 to 84%; pest or weed control at 35 g/ha [2, 11]: 0 to 29%; pest or weed control at 70 g/ha [2, 11]: 0 to 29%; pest or weed control at 35 g/ha [2, 12]: 0 to 29%; pest or weed control at 70 g/ha [2, 12]: 0 to 29%; pest or weed control at 35 g/ha [2, 13]: 95 to 100%
Nc1cc(-c2ccc3c(c2Cl)OC(F)(F)O3)nc(C(=O)O)c1Cl [Compound 34] | 75 to 84 | 75 to 84 | 75 to 84 | 75 to 84 | 75 to 84 | 85 to 94 | 85 to 94 | 95 to 100 | 95 to 100 | 75 to 84 | 85 to 94 | 85 to 94 | 45 to 59 | 60 to 74 | 75 to 84 | 60 to 74 | 75 to 84 | 0 to 29 | 60 to 74 | 0 to 29 | pest or weed control at 35 g/ha [1, 8]: 45 to 59%; pest or weed control at 70 g/ha [1, 8]: 60 to 74%; pest or weed control at 35 g/ha [2, 9]: 75 to 84%; pest or weed control at 70 g/ha [2, 9]: 75 to 84%; pest or weed control at 35 g/ha [2, 10]: 60 to 74%; pest or weed control at 70 g/ha [2, 10]: 60 to 74%; pest or weed control at 140 g/ha [2, 10]: 60 to 74%; pest or weed control at 35 g/ha [2, 11]: 0 to 29%; pest or weed control at 70 g/ha [2, 11]: 0 to 29%; pest or weed control at 35 g/ha [2, 12]: 45 to 59%; pest or weed control at 70 g/ha [2, 12]: 60 to 74%; pest or weed control at 35 g/ha [2, 13]: 0 to 29%; pest or weed control at 70 g/ha [2, 13]: 0 to 29%
COC(=O)c1nc(-c2ccc(Cl)c3c2OC(F)(F)O3)c(Cl)c(N)c1Cl [Compound 70] | 75 to 84 | 85 to 94 | 95 to 100 | 60 to 74 | 60 to 74 | 75 to 84 | 95 to 100 | 95 to 100 | 95 to 100 | 85 to 94 | 95 to 100 | 95 to 100 | 45 to 59 | 75 to 84 | 75 to 84 | 0 to 29 | 0 to 29 | 0 to 29 | 0 to 29 | 0 to 29 | pest or weed control at 35 g/ha [1, 8]: 0 to 29%; pest or weed control at 70 g/ha [1, 8]: 0 to 29%; pest or weed control at 35 g/ha [2, 14]: 0 to 29%; pest or weed control at 70 g/ha [2, 14]: 0 to 29%; pest or weed control at 140 g/ha [2, 14]: 0 to 29%; pest or weed control at 35 g/ha [2, 9]: 0 to 29%; pest or weed control at 70 g/ha [2, 9]: 0 to 29%; pest or weed control at 35 g/ha [2, 11]: 0 to 29%; pest or weed control at 70 g/ha [2, 11]: 0 to 29%; pest or weed control at 35 g/ha [2, 12]: 0 to 29%; pest or weed control at 70 g/ha [2, 12]: 0 to 29%; pest or weed control at 35 g/ha [2, 13]: 0 to 29%; pest or weed control at 70 g/ha [2, 13]: 0 to 29%
COC(=O)c1nc(-c2cc(OC)c3c(c2)OCO3)c(F)c(N)c1Cl [Compound 14] |  |  | 75 to 84 |  |  | 0 to 29 |  |  | 0 to 29 |  |  | 85 to 94 |  |  | 0 to 29 | 0 to 29 | 0 to 29 | 0 to 29 | 0 to 29 | 0 to 29 | pest or weed control at 140 g/ha [2, 14]: 0 to 29%; pest or weed control at 140 g/ha [2, 10]: 0 to 29%
